The values below come from article PMC6263254, “Solid-Phase Synthesis of Arylpiperazine Derivatives and Implementation of the Distributed Drug Discovery (D3) Project in the Search for CNS Agents” (Molecules, 2011).

The target of assay [1] is T1, native serotonin 5-HT1A receptors (Rattus norvegicus, UniProt P19327).
T1 construct: from tissue; host or cells: rat hippocampus membranes
T1 sequence (P19327 1-422): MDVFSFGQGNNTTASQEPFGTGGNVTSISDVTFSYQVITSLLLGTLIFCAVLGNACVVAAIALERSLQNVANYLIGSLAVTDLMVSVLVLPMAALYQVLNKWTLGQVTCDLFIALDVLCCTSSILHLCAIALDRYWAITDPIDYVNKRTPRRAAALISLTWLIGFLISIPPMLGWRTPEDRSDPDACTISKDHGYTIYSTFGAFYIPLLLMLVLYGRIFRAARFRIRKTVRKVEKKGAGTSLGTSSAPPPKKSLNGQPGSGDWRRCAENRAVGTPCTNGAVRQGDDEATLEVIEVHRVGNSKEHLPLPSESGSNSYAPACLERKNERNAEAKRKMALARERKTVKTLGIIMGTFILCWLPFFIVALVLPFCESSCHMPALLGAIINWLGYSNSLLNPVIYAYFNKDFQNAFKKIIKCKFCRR
Nature of the assay: Radioligand binding, [3H]-8-OH-DPAT, rat hippocampal membranes. Note: SEM ≤ 22%. Conditions: read-out: Ki 5-HT1A. The procedure:
(§1) Membrane preparation and a general assay procedure were carried out according to the previously published protocols. Two compound concentrations were tested: 0.1 and 1 μM, each run in triplicate.

Assay [2] addresses T2, native serotonin 5-HT2A receptors (Rattus norvegicus, UniProt P14842).
T2 construct: from tissue; host or cells: rat cortex membranes
Nature of the assay: Radioligand binding, [3H]-ketanserin, rat cortical membranes. For Ki 5-HT2A: SEM ≤ 22%. Conditions: read-out: Ki 5-HT2A. The procedure: as §1

The test system of assay [3] is 5-HT1A receptors. Conditions: cited from earlier work.
The test system of assay [4] is 5-HT2A. The conditions noted are these: cited from earlier work.
On the set-up of assay [5]: method as in PMID 17321139. Conditions: doses of 5–20 mg/kg; ref [4]; cited from earlier work.

Like-named read-outs stand apart in the source and are kept apart here.

T2 sequence (P14842 whole entry): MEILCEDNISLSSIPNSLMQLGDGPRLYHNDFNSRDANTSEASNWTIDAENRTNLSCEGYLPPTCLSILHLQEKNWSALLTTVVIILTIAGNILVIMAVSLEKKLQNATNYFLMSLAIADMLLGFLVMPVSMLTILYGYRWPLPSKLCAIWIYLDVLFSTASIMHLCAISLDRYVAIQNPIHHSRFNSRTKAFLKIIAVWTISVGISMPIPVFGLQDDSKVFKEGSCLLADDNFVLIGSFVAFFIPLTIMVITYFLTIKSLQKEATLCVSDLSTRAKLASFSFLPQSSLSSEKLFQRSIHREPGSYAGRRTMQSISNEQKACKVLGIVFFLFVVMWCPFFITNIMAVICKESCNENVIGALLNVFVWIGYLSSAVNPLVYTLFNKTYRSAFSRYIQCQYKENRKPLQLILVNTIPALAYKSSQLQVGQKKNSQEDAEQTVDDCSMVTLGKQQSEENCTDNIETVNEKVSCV

Regarding `O=C1CC2(CCCC2)CC(=O)N1CCCCN1CCN(c2ncccn2)CC1` [buspirone, reference compound], in assay [1], the potency estimated from few doses was 36 nM.

Take `O=C(N[C@H]1CC(=O)N(CCCCN2CCN(c3cccc(C(F)(F)F)c3)CC2)C1=O)C1CCCC1` [9{9,2}, N-((S)-1-{4-[4-((3-trifluoromethyl)phenyl)piperazin-1-yl]butyl}pyrrolidin-2,5-dion-yl)cyclopentanecarboxamide]: the potency estimated from few doses in assay [1] was 24 nM; in assay [2] it was 79 nM.

Regarding `O=C(N[C@H]1CC(=O)N(CCCN2CCN(c3cccc(C(F)(F)F)c3)CC2)C1=O)C1CCCCC1` [9{8,3}, N-((S)-1-{3-[4-((3-trifluoromethyl)phenyl)piperazin-1-yl]propyl}pyrrolidin-2,5-dion-yl)cyclohexanecarboxamide], the potency estimated from few doses in assay [1] is 170 nM; in assay [2], 276 nM.

As for `O=C(N[C@H]1CC(=O)N(CCCCN2CCN(c3cccc(C(F)(F)F)c3)CC2)C1=O)C1CCCCC1` [9{9,3}, N-((S)-1-{4-[4-((3-trifluoromethyl)phenyl)piperazin-1-yl]butyl}pyrrolidin-2,5-dion-3-yl)cyclohexanecarboxamide], the results for the potency estimated from few doses in assay [1] and in assay [2] were 19 nM and 70 nM, respectively.

Regarding `CC(=O)N[C@H]1CC(=O)N(CCCN2CCN(c3cccc(C(F)(F)F)c3)CC2)C1=O` [9{8,1}, N-((S)-1-{3-[4-((3-trifluoromethyl)phenyl)piperazin-1-yl]propyl}pyrrolidin-2,5-dion-yl)acetamide], the figures for the potency estimated from few doses in assay [1] and in assay [2] were 129 nM and 164 nM, respectively.

Take `COc1ccccc1N1CCN(CCCCN2C(=O)C[C@H](NC(=O)C3CCCCC3)C2=O)CC1` [PZ-68]: the “functional activity at 5-HT1A receptors” value in assay [3] (ref [4]) is listed as “partial agonist”. Besides, the “functional activity at 5-HT2A receptors” value in assay [4] (ref [4]) was “antagonist”. For the same compound, the “in vivo antidepressant-like activity” value in assay [5] is recorded as “showed in vivo antidepressant-like activity”.

Take `O=c1[nH]c2ccccc2n1CCN1CCN(c2cccc(C(F)(F)F)c2)CC1` [Flibanserin]: the “functional activity at 5-HT1A receptors” value in assay [3] (ref [1],[2]) is “agonist”. Also, the “functional activity at 5-HT2A receptors” value in assay [4] (ref [1],[2]) is “antagonist”.

As to `O=C(NCCCN1CCN(c2cccc(C(F)(F)F)c2)CC1)[C@@H]1CCCN1C(=O)C12CC3CC(CC(C3)C1)C2` [10{8,6}, 1-(Adamantylcarbonyl)-N-{3-[4-((3-trifluoromethyl)phenyl)piperazin-1-yl]propyl}-L-prolinamide], the potency estimated from few doses is 42 nM in assay [1] and 1650 nM in assay [2].

With `O=C1C[C@H](NC(=O)C23CC4CC(CC(C4)C2)C3)C(=O)N1CCCCN1CCN(c2cccc(C(F)(F)F)c2)CC1` [9{9,6}, N-((S)-1-{4-[4-((3-trifluoromethyl)phenyl)piperazin-1-yl]butyl}pyrrolidin-2,5-dion-yl)-1-adamatanecarboxamide], the values for the potency estimated from few doses in assay [1] and in assay [2] were 21 nM and 39 nM, respectively.

As to `O=C(NCCCCN1CCN(c2cccc(C(F)(F)F)c2)CC1)[C@@H]1CCCN1C(=O)C12CC3CC(CC(C3)C1)C2` [10{9,6}, 1-(Adamantylcarbonyl)-N-{4-[4-((3-trifluoromethyl)phenyl)piperazin-1-yl]butyl}-L-prolinamide], the figures for the potency estimated from few doses in assay [1] and in assay [2] were 8 nM and 699 nM, respectively.

Turning to `O=C(NCCCCN1CCN(c2cccc(C(F)(F)F)c2)CC1)[C@@H]1CCCN1C(=O)C1CCCC1` [10{9,2}, 1-(Cyclopentylcarbonyl)-N-{4-[4-((3-trifluoromethyl)phenyl)piperazin-1-yl]butyl}-L-prolinamide], the potency estimated from few doses in assay [1] is 26 nM; in assay [2] it was 191 nM.
